Patent US4659859A, “2-alkoxy-1-alkoxy phosphoryl dichlorides” (priority 1986, dated 1987)
Structures can show the parent of a compound that is named as a salt.

Key:
[1] = tested on: leukemic cells; settings: Tidwell et al., Blood, 57, 794 (1981); cited from earlier work
[2] = tested on: X-5563 plasma cell myeloma; test: Antitumor activity vs X-5563 plasma cell myeloma in mice; type: in vivo; settings: daily for 10 days after inoculation
Description: Compounds according to formula II above are also active against transplanted tumors in mice. Table II which follows gives the results of testing (d,1)-2-ethoxy-1-[(2-trimethylaminoethoxy)phosphinyloxy]-eicosane,hydroxy inner salt, (A), against several such tumors. In the table, column 1 gives the name of the tumor, column 2 the dosage levels, column 3 toxic deaths, column 4, the percent tumor growth inhibition and column 5, the dosage schedule or regimen. Ten mice were given each dosage I.P. and a group of 20 mice used as controls.
Table III gives the results obtained by comparing the activity of the racemate (d,1)-2-ethoxy-1-[(2-trimethylaminoethoxy)phosphinyloxy]eicosane,hydroxy inner salt (A), the L-(-)enantiomer (B) and the D-(+)enantiomer (C) versus X-5563, a plasma cell myeloma.

[3] = tested on: spontaneously hypertensive rats (SHR); test: Blood pressure and heart rate in spontaneously hypertensive rats, femoral artery cannula; type: in vivo, rat; settings: for Blood pressure: femoral artery cannula
Description: (§1) The above compounds are also active in lowering the blood pressure of spontaneously hypertensive rats (SHR). […] In the table, column 1 gives the compound used, column 2 the dose level, column 3, the route of administration, column 4, number of rats, column 5, the time of blood pressure measurement, column 6, blood pressure in mm (Hg), and column 7, heart rate.
**B.P. measured by femoral artery cannula.

[4] = tested on: spontaneously hypertensive rats (SHR); test: Blood pressure and heart rate in spontaneously hypertensive rats, tail cuff method; type: in vivo, rat; settings: administered subcutaneously, various dose levels
Description: as §1
*B.P. measured by tail cuff method.

[5] = tested on: release of arachidonic acid from membrane phospholipids (rabbit neutrophils); test: Inhibition of release of arachidonic acid from membrane phospholipids in glycogen-elicited rabbit neutrophils; type: cell-based; settings: A-23187 0.5 mcg/ml activation, 5 minutes pretreatment at 37° C.
Method: In this procedure, glycogen-elicited rabbit neutrophils are labelled with ^14 C-arachidonic acid by incubation for one hour at 37° C. and followed by treatment with the compound under test at 37° C. for 5 minutes. The cells were then activated by addition of 0.5 mcg/ml of A-23187 (an ionophore) for 5 minutes. Cellular metabolism was stopped; the membrane lipids extracted; and the extracted lipids chromatographed on TLC plates. Assays were conducted for free ^14 C-arachidonic acid and hydroxy^14 C-eicosatetraenoic acid (HETES) using a radiochromatogram scanner.

[6] = tested on: carageenin-induced edema (rat paw swelling); test: Carageenin-induced edema (acute inflammation) model, rat paw swelling; type: in vivo; settings: 25 mg/kg oral, at 4 hours, group of 5 rats
Description: It is well known that free arachidonic acid may be processed into potent inflammatory mediators such as the leukotrienes, prostaglandins, thromboxane A2 and prostacyclin. Inhibition of the release of arachidonic acid could result in a lowered inflammatory response.

[7] = 3 mg/kg I.V., 0 hours (baseline)
[8] = 10 mg/kg I.V., 0 hours (baseline)

Q: Which “inhibits the proliferation of leukemic cells” value [1] does the source give for `CCCCCCCCCCCCCCCCCCOCC(COP(=O)([O-])OCC[N+](C)(C)C)OC` (stereo not drawn) here?
A: Its value is “inhibits the proliferation of leukemic cells”.

Q: With `CCCCCCCCCCCCCCCCCC[C@@H](COP(=O)([O-])OCC[N+](C)(C)C)OCC` [Compound 1, D-2-Ethoxy-1-[(2-trimethylaminoethoxy)phosphinyloxy]eicosane, hydroxy inner salt] as the compound, how does the “Percent inhibition of Tumor growth” value ([2]; 17 mg/kg) read?
A: The value was 76%.

Q: And the Toxic deaths ([2]; 17 mg/kg)?
A: The Toxic deaths was 2/10.

Q: And the “Percent inhibition of Tumor growth” value ([2]; 25 mg/kg)?
A: The value was 95%.

Q: And the Toxic deaths ([2]; 25 mg/kg)?
A: The Toxic deaths was 1/10.

Q: What about the “Percent inhibition of Tumor growth” value ([2]; 35 mg/kg) of the same compound?
A: The value was “Toxic”.

Q: What about the Toxic deaths ([2]; 35 mg/kg) of the same compound?
A: The Toxic deaths was 5/10.

Q: What about the “Percent inhibition of Tumor growth” value ([2]; 50 mg/kg) of the same compound?
A: The value was “Toxic”.

Q: And the Toxic deaths ([2]; 50 mg/kg)?
A: The Toxic deaths was 10/10.

Q: What about the Heart Rate [3, 7] of the same compound?
A: Its Heart Rate is 326 beats/min.

Q: What about the Blood pressure [3, 7] of the same compound?
A: The Blood pressure was 197 mm Hg.

Q: And the Heart Rate ([3]; 3 mg/kg I.V., 1.0 hours)?
A: The Heart Rate was 376 beats/min.

Q: What about the Blood pressure ([3]; 3 mg/kg I.V., 1.0 hours) of the same compound?
A: Its Blood pressure is 194 mm Hg.

Q: What about the Heart Rate ([3]; 3 mg/kg I.V., .08 hours) of the same compound?
A: Its Heart Rate is 373 beats/min.

Q: What about the Blood pressure ([3]; 3 mg/kg I.V., .08 hours) of the same compound?
A: The Blood pressure was 197 mm Hg.

Q: What about the Heart Rate ([3]; 3 mg/kg I.V., .25 hours) of the same compound?
A: The Heart Rate was 400 beats/min.

Q: What about the Blood pressure ([3]; 3 mg/kg I.V., .25 hours) of the same compound?
A: The Blood pressure was 200 mm Hg.

Q: What about the Heart Rate ([3]; 3 mg/kg I.V., .5 hours) of the same compound?
A: The Heart Rate was 346 beats/min.

Q: What about the Blood pressure ([3]; 3 mg/kg I.V., .5 hours) of the same compound?
A: The Blood pressure was 188 mm Hg.

Q: What about the Heart Rate [3, 8] of the same compound?
A: The Heart Rate was 345 beats/min.

Q: And the Blood pressure [3, 8]?
A: The Blood pressure was 183 mm Hg.

Q: And the Heart Rate ([3]; 10 mg/kg I.V., 1.0 hours)?
A: The Heart Rate was 355 beats/min.

Q: What about the Blood pressure ([3]; 10 mg/kg I.V., 1.0 hours) of the same compound?
A: Its Blood pressure is 178 mm Hg.

Q: What about the Heart Rate ([3]; 10 mg/kg I.V., .08 hours) of the same compound?
A: The Heart Rate was 360 beats/min.

Q: What about the Blood pressure ([3]; 10 mg/kg I.V., .08 hours) of the same compound?
A: Its Blood pressure is 185 mm Hg.

Q: What about the Heart Rate ([3]; 10 mg/kg I.V., .25 hours) of the same compound?
A: Its Heart Rate is 360 beats/min.

Q: What about the Blood pressure ([3]; 10 mg/kg I.V., .25 hours) of the same compound?
A: The Blood pressure was 184 mm Hg.

Q: What about the Heart Rate ([3]; 10 mg/kg I.V., .5 hours) of the same compound?
A: The Heart Rate was 345 beats/min.

Q: What about the Blood pressure ([3]; 10 mg/kg I.V., .5 hours) of the same compound?
A: The Blood pressure was 177 mm Hg.

Q: With `CCCCCCCCCCCCCCCCCC[C@H](COP(=O)([O-])OCC[N+](C)(C)C)OCC` [Compound 2, L-2-Ethoxy-1-[(2-trimethylaminoethoxy)phosphinyloxy]eicosane, hydroxy inner salt] as the compound, how does the “Percent inhibition of Tumor growth” value ([2]; 2.5 mg/kg) read?
A: The value was 18%.

Q: What about the Toxic deaths ([2]; 2.5 mg/kg) of the same compound?
A: Its Toxic deaths is 1/10.

Q: What about the “Percent inhibition of Tumor growth” value ([2]; 5 mg/kg) of the same compound?
A: Its value is 44%.

Q: What about the Toxic deaths ([2]; 5 mg/kg) of the same compound?
A: Its Toxic deaths is 1/10.

Q: What about the “Percent inhibition of Tumor growth” value ([2]; 10 mg/kg) of the same compound?
A: Its value is 53%.

Q: And the Toxic deaths ([2]; 10 mg/kg)?
A: The Toxic deaths was 0/10.

Q: What about the “Percent inhibition of Tumor growth” value ([2]; 20 mg/kg) of the same compound?
A: The value was 67%.

Q: And the Toxic deaths ([2]; 20 mg/kg)?
A: Its Toxic deaths is 0/10.

Q: What about the “hypotensive effects in SHR (in words)” value [4] of the same compound?
A: The value was “hypotensive effects”.

Q: And the Heart Rate [3, 7]?
A: Its Heart Rate is 340 beats/min.

Q: What about the Blood pressure [3, 7] of the same compound?
A: The Blood pressure was 177 mm Hg.

Q: And the Heart Rate ([3]; 3 mg/kg I.V., 1.0 hours)?
A: The Heart Rate was 380 beats/min.

Q: And the Blood pressure ([3]; 3 mg/kg I.V., 1.0 hours)?
A: Its Blood pressure is 162 mm Hg.

Q: What about the Heart Rate ([3]; 3 mg/kg I.V., .08 hours) of the same compound?
A: The Heart Rate was 385 beats/min.

Q: What about the Blood pressure ([3]; 3 mg/kg I.V., .08 hours) of the same compound?
A: Its Blood pressure is 107 mm Hg.

Q: What about the Heart Rate ([3]; 3 mg/kg I.V., .25 hours) of the same compound?
A: The Heart Rate was 367 beats/min.

Q: And the Blood pressure ([3]; 3 mg/kg I.V., .25 hours)?
A: The Blood pressure was 144 mm Hg.

Q: And the Heart Rate ([3]; 3 mg/kg I.V., .5 hours)?
A: The Heart Rate was 370 beats/min.

Q: What about the Blood pressure ([3]; 3 mg/kg I.V., .5 hours) of the same compound?
A: Its Blood pressure is 162 mm Hg.

Q: Which “inhibition of the release of arachidonic acid (AA) from phospholipids” value [5] does the source give for `CCCCCCCCCCCCCCCCCCC(COP(=O)([O-])OCC[N+](C)(C)C)OC` (racemic) [Compound 7, (d,l)-2-Methoxy-1-[(2-trimethylaminoethoxy)phosphinyloxy]eicosane, hydroxy inner salt] here?
A: Its value is 88%.

Q: What about the “inhibition of the total production of free AA and HETES” value [5] of the same compound?
A: Its value is 100%.

Q: What about the “inhibition of rat paw swelling” value [6] of the same compound?
A: Its value is 68%.
